Measurements from patent US4504470A, “Pharmaceutical preparations containing TRH or its analogue” (Takeda Chemical Industries, Ltd., priority 1981, dated 1985).
Like-named read-outs stand apart in the source and are kept apart here.

Key:
[1] = Absorption of DN-1417 (14C-DN-1417) administered by various routes to rats, plasma AUC; type: in vivo; conditions: for bioavailability as compared with subcutaneous application: no absorption enhancer, 2 mg/kg
Protocol: Male rats of SD strain weighing ca. 300 g, which had been fasted for 24 hours, were dosed with an amount of ^14 C-DN-1417 corresponding to 2 mg/kg of DN-1417 by the rectal, nasal, oral cavity and oral routes. The dosage form for nasal, oral cavity or oral administration was either an aqueous solution or an oil solution, and for nasal administration, 0.02 ml of the solution was given with a micropipette; for oral cavity application, a wad of cotton soaked with 0.02 ml of the solution was sublingually administered; and for oral administration, 1 ml of the solution was given by gavage. For rectal administration, 0.1 ml of an aqueous solution was given using a pipette. In the case of a polyethylene glycol suppository and Witepsol W-35 (Dynamit Nobel Chemicals, West Germany) suppository, 50 mg of either suppository was deposited 1.5 cm from the anus.
After administration, 0.2 ml of blood was taken from the cordal vein at timed intervals and the plasma radioactivity was measured with a scintillation counter. Separation of the unmetabolized compound from metabolites was performed by thin-layer electrophoresis. For the evaluation of absorption rates, the area under a curve of the plasma concentration of DN-1417 over a period of 6 hours after administration [AUC (0-6 hr.)] was compared with the corresponding value obtained by subcutaneous administration to calculate the bioavailability of the drug.

[2] = parameters: species or system rats; conditions: rat, in vivo; for AUC (0-2 hr.): po, 2 mg/kg
Protocol: Using male SD-strain rats weighing ca. 300 g which had been fasted for 24 hours in groups of 3 animals, an amount of ^3 H-TRH equivalent to 2 mg/kg of TRH was administered by the rectal, nasal and oral routes.
The method and volume of administration, the method of collecting blood samples and the method of determination were all the same as described in Experimental Example 1. Evaluation of absorption ratio was made using as a parameter the plasma level of TRH.

effect on absorption ([1]; addition of a hydroxycarboxylic acid)	bioavailability as compared with subcutaneous application ([1]; nasal)	bioavailability as compared with subcutaneous application ([1]; rectal)	absorption from the rectal and nasal mucosa [2]	AUC (0-2 hr.) ([2]; pH 2.1)	AUC (0-2 hr.) ([2]; pH 3.2)	SMILES	effect on absorption ([1]; addition of amino acids, lecithin, etc.)
remarkable improvement in absorption	21%	25%				NC(=O)[C@@H]1CCCN1C(=O)[C@H](Cc1c[nH]cn1)NC(=O)C1CCC(=O)O1 (stereo partly drawn) [DN-1417, γ-butyrolactone-γ-carbonyl-L-histidyl-L-prolinamide]	does not result in any significant improvement of absorption
			enhanced	1.1 µg·h/mL	0.7 µg·h/mL	NC(=O)[C@@H]1CCCN1C(=O)[C@H](Cc1cnc[nH]1)NC(=O)[C@@H]1CCC(=O)N1 [TRH, L-pyroglutamyl-L-histidyl-L-prolinamide]	
